In paper PMC5132298 (PLoS ONE, 2016):
In brackets after ≈: the same amount, converted by molar mass. Read-outs that look alike come from different tables or passages of the source.

Assays:
[1] = tested on: Alternaria sonali, Fulvia fulva, Botrytis cinerea and Rhizoctonia solani; parameters: method as in PMID 23451708; settings: 4 fungal pathogens; cited from earlier work
[2] = target: T1, ScErg11p6×His (S. cerevisiae lanosterol 14α-demethylase) (Saccharomyces cerevisiae, UniProt P10614); test: Type II binding (difference spectra) to affinity purified ScErg11p6×His; settings: for mode of inhibition: ScErg11p6×His; for Induced spectral shift on ligand binding Wavelength: Soret peak, (-) indicates no significant change in Soret peak wavelength; for [Azole]0.5: azole concentration giving half ΔAmax, 1 µM ScErg11p6×His; for type of binding (difference spectra): azole up to 2 μM, 1 μM ScErg11p6×His
T1 construct: Crystal structures of the full length S. cerevisiae lanosterol 14α-demethylase (ScErg11p6×His); 6×His (hexahistidine); made in house; host or cells: Saccharomyces cerevisiae (AD3Δ overexpression strain, native ERG11 deleted)
Experimental: Type II azole binding is characterised by a shift of the Soret peak from 417 nm to 421–424 nm in ScErg11p6×His and other cytochrome P450s. The type II difference spectra were used to detect and quantitate binding of the inhibitors S-TBZ, R-TBZ, S-PTZ, R-PTZ, S-DPZ, R-DPZ, S-oxo-PTZ and R-oxo-PTZ, FQZ, and PRZ using Ni-NTA affinity purified wild type ScErg11p6×His preparations at 1 μM. Spectral shifts, [Azole]0.5 values, Hill coefficients as well as Type II difference spectra binding curves are shown in S3 Table (selected spectra shown in S2 Fig) and Fig 6, respectively.
Samples of Ni-NTA-agarose affinity purified ScErg11p6×His were eluted with 40 mM histidine instead of imidazole as described by Warrilow et al.. Samples were washed free of the histidine and concentrated by centrifugal filtration using a 50 kDa molecular-weight cut-off Amicon Ultra-4 centrifugal filter (Millipore) to give protein with a Soret peak at 417 nm. Carbon monoxide binding was used to determine the concentration of functional cytochrome P450 for drug binding studies as described previously based on the protocol described by Guengerich et al. Saturation curves for the binding of type II ligands were determined by obtaining difference spectra for functional enzyme at 1 μM as described previously. […] All calculations were carried out using GraphPad Prism 6 Software (GraphPad Prism, San Diego, CA). [Azole]0.5 values were defined as the concentration of the azole drug that gave half ΔAmax.
Hill coefficients and Kd values were obtained by applying the Hill equation as described in Materials and methods. (-) indicates no significant change in Soret peak wavelength on exposure to the ligand. The data presented is a representative set

Candida albicans CYP51 = tested on: Candida albicans CYP51; parameters: method as in PMID 23275516; settings: cited from earlier work
[3] = tested on: S. cerevisiae AD2Δ host strain (native ERG11 retained); test: MIC50 broth microdilution, AD2Δ host strain with native ERG11 retained; type: cell-based, Saccharomyces cerevisiae
Experimental: (§1) The susceptibility to azole compounds of S. cerevisiae AD3Δ strains overexpressing Erg11p6×His wild type and Y140F/H, but with the native ERG11 deleted, as well as the host strain (AD2Δ) which retained the wild type ERG11 (S2 Table), were measured as MIC50 values (Table 1). […] PTZ has been reported to be a prodrug for DPZ [27]. […] There was a 3.3 fold (0.28 ± 0.02 μM) and a 4.3 fold (1.2 ± 0.2 μM) reduction in susceptibility to S-PTZ in the Y140F and Y140H mutant strains respectively. There was only a 2 fold reduction in susceptibility to R-PTZ in the Y140H mutant strain with no change seen in the Y140F strain. The PTZ metabolite, S-DPZ produced a 4.6 fold (0.073 ± 0.016 μM) and 3 fold (0.048 ± 0.009 μM) reduction is susceptibility against the Y140F and Y140H mutant strains respectively. […] Again we observed 8.3 fold (3.3 ± 0.7 μM) and 4 fold (1.6 ± 0.5 μM) reduction in susceptibility to FQZ in the Y140F and Y140H mutant strains respectively.
(§2) The susceptibilities of strains overexpressing wild type ScErg11p6×His and ScErg11p6×His Y140F/H to CYP51 inhibitors were measured as MIC50 values using broth microdilution assays as described previously.[21] The MIC50s were defined as the concentration of drug required for 50% growth inhibition compared to no drug controls.

[4] = tested on: S. cerevisiae AD3Δ overexpressing ScErg11p6×His wild type, native ERG11 deleted; test: MIC50 broth microdilution, AD3Δ strain overexpressing wild type ScErg11p6×His; type: cell-based, Saccharomyces cerevisiae; settings: for fold more active than the R enantiomer (MIC50): S versus R enantiomer, MIC50 values for AD3Δ strains
Experimental: as §1, §2

[5] = tested on: S. cerevisiae AD3Δ overexpressing ScErg11p6×His Y140F, native ERG11 deleted; test: MIC50 broth microdilution, strain overexpressing ScErg11p6×His Y140F; type: cell-based, Saccharomyces cerevisiae; settings: for fold reduction in susceptibility in Y140F mutant strain: MIC50 Y140F strain versus AD3Δ wild type overexpressing strain
Experimental: as §1, §2

[6] = tested on: S. cerevisiae AD3Δ overexpressing ScErg11p6×His Y140H, native ERG11 deleted; test: MIC50 broth microdilution, strain overexpressing ScErg11p6×His Y140H; type: cell-based, Saccharomyces cerevisiae; settings: for fold reduction in susceptibility in Y140H mutant strain: MIC50 Y140H strain versus AD3Δ wild type overexpressing strain
Experimental: as §1, §2

[7] = AD2Δ host, native ERG11 retained, mean ± standard error
[8] = AD3Δ, ScErg11p6×His overexpressed from PDR5 locus, native ERG11 deleted, mean ± standard error
[9] = Y140F, ScErg11p6×His Y140F overexpressed from PDR5 locus, native ERG11 deleted, mean ± standard error
[10] = Y140H, ScErg11p6×His Y140H overexpressed from PDR5 locus, native ERG11 deleted, mean ± standard error

T1 sequence (P10614 whole entry): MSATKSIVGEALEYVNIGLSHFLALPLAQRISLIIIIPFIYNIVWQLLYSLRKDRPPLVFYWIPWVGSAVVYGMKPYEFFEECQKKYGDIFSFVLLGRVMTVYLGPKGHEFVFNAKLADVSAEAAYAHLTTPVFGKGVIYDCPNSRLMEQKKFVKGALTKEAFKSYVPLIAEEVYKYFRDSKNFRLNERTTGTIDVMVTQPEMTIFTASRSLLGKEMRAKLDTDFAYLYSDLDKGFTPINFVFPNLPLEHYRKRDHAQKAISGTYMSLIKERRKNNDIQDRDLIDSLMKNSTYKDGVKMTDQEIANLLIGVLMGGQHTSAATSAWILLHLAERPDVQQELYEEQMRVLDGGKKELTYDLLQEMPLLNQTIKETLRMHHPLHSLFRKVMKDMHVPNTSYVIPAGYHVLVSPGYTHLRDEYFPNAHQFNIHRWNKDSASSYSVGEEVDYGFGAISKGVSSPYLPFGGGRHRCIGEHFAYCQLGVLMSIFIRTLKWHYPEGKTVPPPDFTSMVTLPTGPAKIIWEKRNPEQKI

SMILES | Induced spectral shift on ligand binding Wavelength [2] | MIC50 ([3]; Saccharomyces cerevisiae) | MIC50 ([4]; Saccharomyces cerevisiae) | fold reduction in susceptibility in Y140F mutant strain [5] | MIC50 ([5]; Saccharomyces cerevisiae) | fold reduction in susceptibility in Y140H mutant strain [6] | MIC50 ([6]; Saccharomyces cerevisiae) | Kd [2] | [Azole]0.5 [2] | type of binding (difference spectra) [2] | other results
C[C@@H]1CO[C@@](Cn2cncn2)(c2ccc(Oc3ccc(Cl)cc3)cc2Cl)O1 [2S,4R stereoisomer, 1-(((2S,4R)-2-(2-chloro-4-(4-chlorophenoxy)phenyl)-4-methyl-1,3-dioxolan-2-yl)methyl)-1H-1,2,4-triazole] | – | – | – | – | – | – | – | – | – | – | stereoselective bioactivity among DFC stereoisomers [1]: most active compound
OC(Cc1ccccc1Cl)(Cn1cncn1)C1(Cl)CC1 (stereo not shown) [DPZ, prothioconazole-desthio] | 417 nm to ~421 | – | – | – | – | – | – | – | – | – | mode of inhibition [2]: non-competitive inhibitors; Kd (Candida albicans CYP51; read-out: Kd (tight type II binding), Candida albicans CYP51, type II binding): 36.4 ± 10.7 nM
CC1COC(Cn2cncn2)(c2ccc(Oc3ccc(Cl)cc3)cc2Cl)O1 (stereo not shown) [Difenoconazole, difenoconazole] | – | 0.0147 ± 0.0003 µM (≈ 0.00597 µg/mL) | 0.047 ± 0.009 µM (≈ 0.0191 µg/mL) | 5.2 fold | 0.243 ± 0.003 µM (≈ 0.0987 µg/mL) | 5 fold | 0.237 ± 0.003 µM (≈ 0.0963 µg/mL) | – | – | – | –
O=c1c2cc(F)ccc2nc(-n2cncn2)n1-c1ccc(Cl)cc1Cl [Fluquinconazole, fluquinconazole] | – | 0.17 ± 0.02 µM (≈ 0.064 µg/mL) | 0.4 ± 0.05 µM (≈ 0.15 µg/mL) | 8.3 fold | 3.3 ± 0.7 µM (≈ 1.24 µg/mL) | 4 fold | 1.6 ± 0.5 µM (≈ 0.602 µg/mL) | 15 ± 21 nM | 0.31 µM | type II binding | mode of inhibition [2]: non-competitive inhibitors; Induced spectral shift on ligand binding Wavelength ([2]; listed as FQZ): 417 nm to ~421
OC(Cc1ccccc1Cl)(Cn1nc[nH]c1=S)C1(Cl)CC1 (stereo not shown) [PTZ, prothioconazole] | absence of a spectral shift | – | – | – | – | – | – | – | – | no binding | Kd (Candida albicans CYP51; Candida albicans CYP51, type I difference spectra, read-out: Kd (weak type I difference spectra)): 6300 ± 1500 nM
CCCN(CCOc1c(Cl)cc(Cl)cc1Cl)C(=O)n1ccnc1 [Prochloraz, prochloraz] | – | 0.25 ± 0.02 µM (≈ 0.0942 µg/mL) | 1.9 ± 0.5 µM (≈ 0.716 µg/mL) | 2.3 fold | 4.3 ± 0.8 µM (≈ 1.62 µg/mL) | 3.5 fold | 6.7 ± 0.7 µM (≈ 2.52 µg/mL) | 27 ± 24 nM | 0.30 µM | type II binding | mode of inhibition [2]: non-competitive inhibitors; Induced spectral shift on ligand binding Wavelength ([2]; listed as PRZ): 417 nm to ~421
O=c1[nH]cnn1CC(O)(Cc1ccccc1Cl)C1(Cl)CC1 (stereo not shown) [R-Oxo-prothioconazole, R-oxo-prothioconazole] | 417(-) nm | – | – | – | – | – | – | – | – | neither type I nor type II binding | MIC50 [3, 7]: 75.0 ± 3.0 µM (≈ 24.6 µg/mL); MIC50 [4, 8]: 80 ± 2 µM (≈ 26.3 µg/mL); MIC50 [5, 9]: 87 ± 7 µM (≈ 28.6 µg/mL); MIC50 [6, 10]: 95 ± 5 µM (≈ 31.2 µg/mL)
OC(Cc1ccccc1Cl)(Cn1nc[nH]c1=S)C1(Cl)CC1 (stereo not shown) [R-Prothioconazole, R-prothioconazole] | 417 (-) nm | – | – | – | – | – | – | – | – | – | MIC50 [3, 7]: 5.2 ± 1.3 µM (≈ 1.79 µg/mL); MIC50 [4, 8]: 16 ± 3 µM (≈ 5.51 µg/mL); fold reduction in susceptibility in Y140F mutant strain ([5]; listed as R-PTZ): no change; MIC50 [5, 9]: 16 ± 4 µM (≈ 5.51 µg/mL); fold reduction in susceptibility in Y140H mutant strain ([6]; listed as R-PTZ): 2 fold; MIC50 [6, 10]: 31 ± 4 µM (≈ 10.7 µg/mL)
O[C@](Cc1ccccc1Cl)(Cn1cncn1)C1(Cl)CC1 [R-Prothioconazole-desthio, R-prothioconazole-desthio] | – | 0.47 ± 0.05 µM (≈ 0.147 µg/mL) | 3.2 ± 0.2 µM (≈ 0.999 µg/mL) | 2.3 fold | 7.5 µM (≈ 2.34 µg/mL) | 2.3 fold | 7.5 µM (≈ 2.34 µg/mL) | 54 ± 31 nM | 0.33 µM | type II binding | –
CC(C)(C)[C@](O)(CCc1ccc(Cl)cc1)Cn1cncn1 [R-Tebuconazole, R-tebuconazole] | – | 0.12 µM (≈ 0.0369 µg/mL) | 1.1 ± 0.3 µM (≈ 0.339 µg/mL) | – | 2 ± 0.2 µM (≈ 0.616 µg/mL) | – | 5.2 ± 1.3 µM (≈ 1.6 µg/mL) | 65 ± 35 nM | 0.30 µM | type II binding | –
O=c1[nH]cnn1CC(O)(Cc1ccccc1Cl)C1(Cl)CC1 (stereo not shown) [S-Oxo-prothioconazole, S-oxo-prothioconazole] | 417(-) nm | – | – | – | – | – | – | – | – | neither type I nor type II binding | MIC50 [3, 7]: 75.0 ± 0.0 µM (≈ 24.6 µg/mL); MIC50 [4, 8]: 84 ± 3 µM (≈ 27.6 µg/mL); MIC50 [5, 9]: 87 ± 7 µM (≈ 28.6 µg/mL); MIC50 [6, 10]: 97 ± 3 µM (≈ 31.8 µg/mL)
OC(Cc1ccccc1Cl)(Cn1nc[nH]c1=S)C1(Cl)CC1 (stereo not shown) [S-Prothioconazole, S-prothioconazole] | 417 (-) nm | – | – | – | – | – | – | – | – | – | MIC50 [3, 7]: 0.077 ± 0.003 µM (≈ 0.0265 µg/mL); MIC50 [4, 8]: 0.28 ± 0.02 µM (≈ 0.0964 µg/mL); fold more active than the R enantiomer (MIC50) [4]: 57 fold; MIC50 [5, 9]: 0.93 ± 0.0 µM (≈ 0.32 µg/mL); fold reduction in susceptibility in Y140H mutant strain ([6]; listed as S-PTZ): 4.3 fold; MIC50 [6, 10]: 1.2 ± 0.2 µM (≈ 0.413 µg/mL)
O[C@@](Cc1ccccc1Cl)(Cn1cncn1)C1(Cl)CC1 [S-Prothioconazole-desthio, S-prothioconazole-desthio] | – | 0.006 ± 0.001 µM (≈ 0.00187 µg/mL) | 0.0157 ± 0.0003 µM (≈ 0.0049 µg/mL) | 4.6 fold | 0.073 ± 0.016 µM (≈ 0.0228 µg/mL) | 3 fold | 0.048 ± 0.009 µM (≈ 0.015 µg/mL) | 102 ± 45 nM | 0.42 µM | type II binding | fold more active than the R enantiomer (MIC50) [4]: 200 fold
CC(C)(C)[C@@](O)(CCc1ccc(Cl)cc1)Cn1cncn1 [S-Tebuconazole, S-tebuconazole] | – | 0.0197 ± 0.0003 µM (≈ 0.00606 µg/mL) | 0.073 ± 0.015 µM (≈ 0.0225 µg/mL) | 8.7 fold | 0.64 ± 0.11 µM (≈ 0.197 µg/mL) | 11.9 fold | 0.87 ± 0.06 µM (≈ 0.268 µg/mL) | 115 ± 44 nM | 0.33 µM | type II binding | fold more active than the R enantiomer (MIC50) [4]: 15 fold
CC(C)(C)C(O)(CCc1ccc(Cl)cc1)Cn1cncn1 (stereo not shown) [TBZ, tebuconazole] | 417 nm to ~421 | – | – | – | – | – | – | – | – | – | mode of inhibition [2]: non-competitive inhibitors
O=c1[nH]cnn1CC(O)(Cc1ccccc1Cl)C1(Cl)CC1 (stereo not shown) [oxo-PTZ, oxo-prothioconazole] | absence of a spectral shift | – | – | – | – | – | – | – | – | – | –
